Reference: patent US9023844B2, “Heterocyclylpyri (mi) dinylpyrazole as fungicidals” (Bayer Intellectual Property GmbH, priority 2011, dated 2015)
Read-outs that look alike come from different tables or passages of the source.

Legend:
[1] = test system: Phytophthora infestans; format: in vivo
[2] = test system: Pyricularia oryzae; format: in vivo
[3] = test system: Septoria tritici; assay: Example J: Septoria tritici test (wheat) / preventive; format: in vivo
[4] = test system: Plasmopara viticola; assay: Example H: Plasmopara test (grapevines) / preventive; format: in vivo
[5] = test system: Uromyces appendiculatus; assay: Example B: Uromyces test (beans) / preventive; format: in vivo
[6] = test system: Venturia inaequalis; assay: Example I: Venturia test (apples) / preventive; conditions: 100 ppm of active ingredient, preventive spray, evaluated 10 days after inoculation
Method: After the spray coating has dried on, the plants are inoculated with an aqueous conidia suspension of the causal agent of apple scab (Venturia inaequalis) and then remain for 1 day in an incubation cabinet at approximately 20° C. and a relative atmospheric humidity of 100%.
The plants are then placed in a greenhouse at approximately 21° C. and a relative atmospheric humidity of approximately 90%.
The test is evaluated 10 days after the inoculation.

[7] = test system: Fusarium graminearum; assay: microbe, parasite or virus in culture; format: cell-based
[8] = test system: DON/Acetyl-DON production by Fusarium graminearum; assay: microbe, parasite or virus in culture; format: cell-based
[9] = Determination of log P values by HPLC on a reverse phase column (C18), EEC-Directive 79/831 Annex V.A8 (Methods A, B, C); format: physicochemical; conditions: for chromatographic logP: reverse phase C18 HPLC column
Procedure, shortened: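 LogP was determined by C18 reverse-phase HPLC/UPLC with acetonitrile/water eluents containing formic acid. Method A used a 10–95% acetonitrile gradient over 4.25 min at 55 °C and 2.0 mL/min. Method B used 5–95% over 1.70 min at 55 °C and 2.0 mL/min, and Method C used 10–95% over 3.25 min at 40 °C and 0.8 mL/min, with MS detection.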

[10] = test system: Leptosphaeria nodorum; assay: Example C: Leptosphaeria test (wheat) / preventive; format: in vivo
[11] = test system: Puccinia recondita; assay: Example E: Puccinia test (wheat) / preventive; format: in vivo
[12] = test system: Pyrenophora teres; assay: Example D: Pyrenophora test (barley) / preventive; format: in vivo
[13] = test system: Fusarium graminearum; format: in vivo
[14] = test system: Sphaerotheca fuliginea; assay: Example A: Sphaerotheca test (cucumber) / preventive; format: in vivo
[15] = test system: Fusarium nivale (var. majus); assay: Example K: Fusarium nivale (var. majus) test (wheat) / preventive; format: in vivo; conditions: 500 ppm of active ingredient, preventive spray, evaluated 5 days after inoculation
Method: After the spray coating has been dried, the plants are slightly injured by using a sandblast and afterwards they are sprayed with a conidia suspension of Fusarium nivale (var. majus).
The test is evaluated 5 days after the inoculation.

[16] = test system: Pyricularia oryzae; format: in vivo; remark: listed apart in the source
[17] = 500 ppm of active ingredient, wheat, preventive spray, evaluated 7-9 days after inoculation
[18] = Method A: HPLC, reverse phase C18, acetonitrile (0.1% formic acid)/water (0.09% formic acid) gradient
[19] = Method B (HPLC, reverse phase C18)
[20] = Method C (HPLC, reverse phase C18)

Compound | efficacy [6] | efficacy [15] | efficacy ([1]; in vivo) | efficacy ([2]; in vivo) | efficacy ([3]; in vivo) | efficacy ([4]; in vivo) | efficacy ([5]; in vivo) | Growth inhibition of Fusarium graminearum in % ([7]; at 50 μM) | Inhibition of DON/AcDON in % ([8]; at 50 μM) | efficacy ([10]; in vivo) | efficacy ([11]; in vivo) | efficacy ([12]; in vivo) | efficacy ([13]; in vivo) | efficacy ([14]; in vivo) | LogP [9, 19] | also measured
O=C(Nc1cc(-c2c(-c3ccc(F)cc3)nn3c2OCCC3)ccn1)C1CC1 [Example 4, N-{4-[2-(4-fluorophenyl)-6,7-dihydro-5H-pyrazolo[5,1-b][1,3]oxazin-3-yl]pyridin-2-yl}cyclo-propanecarboxamide] | 95% | 100% |  |  |  |  |  |  |  |  |  |  |  |  |  | efficacy ([1]; 100 ppm of active ingredient, tomatoes, preventive spray, evaluated 3 days after inoculation): 94%; efficacy ([2]; 500 ppm of active ingredient, rice, preventive spray, evaluated 7 days after inoculation): 100%; efficacy ([3]; 500 ppm of active ingredient, wheat, preventive spray, evaluated 21 days after inoculation): 80%; efficacy ([4]; 100 ppm of active ingredient, grapevines, preventive spray, evaluated 6 days after inoculation): 100%; efficacy ([5]; 500 ppm of active ingredient, beans, preventive spray, evaluated 6-8 days after inoculation): 90%; inhibition at 50 µM ([7]; Fusarium graminearum, read-out: Growth inhibition of Fusarium graminearum in %): 69%; inhibition at 50 µM ([8]; Fusarium graminearum, at 50 μM, read-out: Inhibition of DON/AcDON in %): 99%; chromatographic logP ([9]; Method B (HPLC, reverse phase C18), read-out: LogP): 1.47; chromatographic logP ([9]; pH 2.7, values in the synthesis examples, HPLC, reverse phase C18, read-out: log P (pH 2.7)): 1.39; efficacy [10, 17]: 90%; efficacy [11, 17]: 100%; efficacy ([12]; 500 ppm of active ingredient, barley, preventive spray, evaluated 7-9 days after inoculation): 100%; efficacy ([13]; 500 ppm of active ingredient, barley, preventive spray, evaluated 5 days after inoculation): 100%; efficacy ([14]; 500 ppm of active ingredient, cucumber, preventive spray, evaluated 7 days after inoculation): 100%
CCC(=O)Nc1cc(-c2c(-c3ccc(F)cc3)nn3c2OCCC3)ccn1 [Example 5] | 98% | 100% | 95% | 100% | 92% | 100% | 93% | 62% | 100% | 90% | 100% | 95% | 100% | 95% |  | LogP [9, 18]: 1.46
CCOC(=O)Nc1cc(-c2c(-c3ccccc3)nn3c2OCCC3)ccn1 [Example 9] | 100% | 93% | 95% | 94% | 80% | 94% | 94% | 100% | 100% | 95% | 100% | 100% | 100% | 95% | 1.51 | 
CCC(C)C(=O)Nc1cc(-c2c(-c3ccccc3)nn3c2OCCC3)ccn1 (centres unmarked) [Example 10] | 99% | 100% | 95% | 94% | 86% | 94% | 94% | 95% | 100% | 80% | 100% | 80% | 90% | 100% | 1.63 | 
CC(C)C(=O)Nc1cc(-c2c(-c3ccc(F)cc3)nn3c2OCCC3)ccn1 [Example 22] | 99% | 100% | 95% | 94% | 100% | 100% | 94% | 99% | 100% | 90% | 100% | 95% | 100% | 100% | 1.54 | 
CC(C)CC(=O)Nc1cc(-c2c(-c3ccc(F)cc3)nn3c2OCCC3)ccn1 [Example 25] | 100% | 100% | 93% | 100% | 80% | 98% | 94% |  |  | 95% | 100% | 100% | 100% | 100% | 1.82 | 
O=C(Nc1cc(-c2c(-c3ccc(F)cc3)nn3c2OCCC3)ccn1)C1CCOCC1 [Example 28] | 98% | 100% | 95% | 94% | 88% | 92% | 94% | 94% | 99% | 95% | 100% | 95% | 86% | 100% | 1.37 | 
CCC(=O)Nc1cc(-c2c(-c3ccc(F)cc3F)nn3c2OCCC3)ccn1 [Example 35] | 100% | 100% | 99% | 94% | 100% | 95% | 92% | 100% | 99% | 80% | 100% | 95% | 100% |  | 1.34 | 
CC(C)C(=O)Nc1cc(-c2c(-c3ccc(F)cc3F)nn3c2OCCC3)ccn1 [Example 37] | 100% | 100% | 95% | 94% | 88% | 100% | 94% |  |  | 70% | 100% | 95% | 100% | 100% | 1.6 | 
CCC(=O)N(C(=O)CC)c1cc(-c2c(-c3ccc(F)cc3)nn3c2OCCC3)ccn1 [Example 53] | 100% | 100% | 95% | 90% | 75% | 98% | 74% | 79% | 100% | 90% | 95% | 100% | 100% | 95% |  | LogP [9, 18]: 2.74
CC(C)C(=O)Nc1cc(-c2c(-c3ccc(F)cc3)nn3c2OCCC3C)ccn1 (centres unmarked) [Example 62] | 100% | 100% | 95% | 95% | 75% | 100% | 78% | 86% | 99% |  | 90% | 95% | 100% | 100% |  | LogP [9, 18]: 1.86
CCC(=O)Nc1cc(-c2c(-c3ccc(F)cc3)nn3c2OC[Si](C)(C)C3)ccn1 [Example 77] | 96% | 90% | 100% | 90% | 71% | 100% | 94% |  |  | 94% | 100% | 95% | 100% | 95% |  | Growth inhibition of Fusarium graminearum in % ([7]; 50 µM): 91%; Inhibition of DON/AcDON in % ([8]; 50 µM): 100%; LogP [9, 20]: 2.15
CC(=O)Nc1cc(-c2c(-c3cccs3)nn3c2OC[Si](C)(C)C3)ccn1 [Example 85] | 97% | 100% | 95% | 90% | 86% | 97% |  |  |  | 90% | 78% | 95% | 71% |  |  | Inhibition of DON/AcDON in % ([8]; 50 µM): 99%; LogP [9, 20]: 1.74
C[Si]1(C)COc2c(-c3ccnc(N)c3)c(-c3cccs3)nn2C1 [Example 89, 4-[3,3-dimethyl-7-(2-thienyl)-3,4-dihydro-2H-pyrazolo[5,1-b][1,3,5]oxazasilin-8-yl]pyridin-2-amine] |  |  |  |  |  |  |  |  |  |  |  |  |  |  |  | protection (% of efficacy) ([16]; dose of 500 ppm, rice plants, grading 6 days after contamination): 75%; chromatographic logP ([9]; Method C (HPLC, reverse phase C18), read-out: LogP): 1.55; chromatographic logP ([9]; pH 2.3, intermediates of formula [II], HPLC, reverse phase C18, read-out: LogP (pH 2.3)): 1.55
CCC(=O)N(C(=O)CC)c1cc(-c2c(-c3ccc(F)cc3F)nn3c2OCCC3)ccn1 [Example 95] |  |  |  |  |  |  |  | 77% | 97% |  |  |  |  |  |  | protection (% of efficacy) ([16]; in vivo): 83%; LogP [9, 18]: 2.68
